Data: ChEMBL document CHEMBL1156592, “4-(1H-indazol-5-yl)-6-phenylpyrimidin-2(1H)-one analogs as potent CDC7 inhibitors” (Bioorg Med Chem Lett, 2008)
pIC50: −log10 of the molar value.

Experiments:
A549 = test: Growth inhibition of human A549 cells; format: functional
[1] = molecular target: Cell division cycle 7-related protein kinase (Homo sapiens, UniProt O00311); test: Inhibition of CDC7-DBF4
[2] = Metabolic stability in mouse microsomes assessed as half life; format: ADME, Microsome

Cell division cycle 7-related protein kinase, sequence (O00311 whole entry): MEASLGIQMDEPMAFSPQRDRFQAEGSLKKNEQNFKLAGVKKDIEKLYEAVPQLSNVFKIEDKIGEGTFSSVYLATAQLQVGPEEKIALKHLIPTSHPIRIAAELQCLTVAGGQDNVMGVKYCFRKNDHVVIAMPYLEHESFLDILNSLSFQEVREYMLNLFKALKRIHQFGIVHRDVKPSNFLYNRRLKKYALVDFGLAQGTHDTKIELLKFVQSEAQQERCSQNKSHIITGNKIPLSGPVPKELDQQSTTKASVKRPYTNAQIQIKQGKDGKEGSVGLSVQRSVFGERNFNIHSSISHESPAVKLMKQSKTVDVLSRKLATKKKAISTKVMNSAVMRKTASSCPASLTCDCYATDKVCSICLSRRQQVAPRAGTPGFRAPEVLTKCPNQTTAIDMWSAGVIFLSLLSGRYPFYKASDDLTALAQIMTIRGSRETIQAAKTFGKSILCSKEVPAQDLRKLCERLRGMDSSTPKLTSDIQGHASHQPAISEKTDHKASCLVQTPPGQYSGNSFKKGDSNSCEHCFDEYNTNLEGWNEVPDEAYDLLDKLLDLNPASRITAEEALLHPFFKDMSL

| Structure (SMILES) | GI50 (A549) [nM] | pIC50 [1] | half-life [2] [min] |
| --- | --- | --- | --- |
| O=c1nc(-c2ccc(O)cc2)cc(-c2ccccc2)[nH]1 | > 10000 | 7.52 | 4 |
| O=c1nc(-c2ccc3[nH]ncc3c2)cc(-c2cccc(OCc3ccccc3)c2)[nH]1 | – | 8.22 | – |
| O=c1nc(-c2ccc3[nH]ncc3c2)cc(-c2ccc(OCc3ccccc3)cc2)[nH]1 | – | 6.46 | – |
| COc1ccc(-c2cc(-c3ccnc(N(C)C)c3)nc(=O)[nH]2)c(OC)c1 | – | 5.14 | – |
| Cc1cc(-c2cc(-c3ccccc3)[nH]c(=O)n2)ccc1O | > 10000 | – | – |
| CCc1ccc(-c2cc(-c3ccc4n[nH]cc4c3)nc(=O)[nH]2)cc1 | – | 7.00 | – |
| O=c1nc(-c2ccc3[nH]ncc3c2)cc(-c2ccc(N3CCNCC3)cc2)[nH]1 | – | 7.40 | – |
| O=c1nc(-c2ccc3[nH]ncc3c2)cc(-c2ccccc2F)[nH]1 | – | 8.00 | – |
| O=c1nc(-c2ccc3[nH]ncc3c2)cc(-c2cccc(F)c2)[nH]1 | – | 6.82 | – |
| O=c1nc(-c2ccc3[nH]ncc3c2)cc(-c2cccc(C(F)(F)F)c2)[nH]1 | – | 6.96 | – |
| O=c1nc(-c2ccc3[nH]ncc3c2)cc(-c2cccc(Cl)c2)[nH]1 | 600 | 8.30 | – |
| COc1ccc(-c2cc(-c3ccnc(N)c3)nc(=O)[nH]2)c(OC)c1 | – | 6.00 | – |
| O=c1nc(-c2ccncc2)cc(-c2cccc(Cl)c2)[nH]1 | – | < 4.89 | – |
